These are literature values, as cited in US20110129540A1, “Polymer of acrylic or methacrylic type comprising alpha-tocopherol grafts” (Flamel Technologies, priority 2009, published 2011).

In brackets after ≈: the same amount, converted by molar mass.

For this data set the following is noted: no polymer.

As for `COc1ccccc1OCCNCC(O)COc1cccc2[nH]c3ccccc3c12` (stereo not shown) [carvedilol], the “Solubility in pure water” value was 50 µg/mL (≈ 123 µM).
